Measured values reported in patent US7588906B2, “Hydrogels for biomolecule analysis and corresponding method to analyze biomolecules” (Wisconsin Alumni Research Foundation, priority 2004, dated 2009).
Like-named read-outs stand apart in the source and are kept apart here. Ends that are not written are not given here.

Key:
[1] = target: T1, protein-tyrosine kinase p60c-src (Homo sapiens, UniProt P12931); assay: Surface kinase assay, phosphorylation of hydrogel-immobilized GST-[…]; assay type: biochemical
T1 construct: purchased Calbiochem, San Diego, Calif
Protocol: Surface protein kinase assays were carried out in a fashion similar to the solution kinase assays. Glass slides containing 0 to 600 ng of GST-[…] (SEQ. ID. NO: 1) per 1 μl polyacrylamide spot were prepared as above and stored overnight in kinase assay buffer (50 mM HEPES, 0.1 mM EDTA, 0.015% Brij 35, pH 7.5) at 4° C. Just prior to the kinase assay, these slides were dried under a stream of compressed air. […] The protein kinase reaction mixture containing 1.5 μl of 50% glycerol, 1.5 μl of ATP mix, and 0.3 units of p60^c-src in 1.5 μl of kinase dilution buffer was placed on top of each polyacrylamide spot and the slides were incubated in a humidity chamber at 37° C. for 10 minutes to 5.5 hours.
In the case of phosphotyrosine detection, a similar procedure was followed with the substitution of TBST for PBST as the buffer and BSA for milk as the blocking agent. These substitutions were required to reduce the nonspecific binding of the secondary antibody used in this detection scheme. […] The slides were then stored in TBST until detection.
In the case of the nitrocellulose membranes, 20 ml of ECL detection reagent was used per membrane.

[2] = target: T1, protein-tyrosine kinase p60c-src; assay: Solution kinase assay, phosphorylation of GST-[…]; assay type: biochemical; details: solution reaction, Lineweaver-Burk plot
Protocol: Solution protein kinase assays with protein-tyrosine kinase p60^c-src (Calbiochem, San Diego, Calif.) were carried out according to the manufacture's instructions. Briefly, reaction mixtures containing 1.5 μl of 50% glycerol, 1.5 μl of ATP mix (0.15 mM ATP, 30 mM MgCl2), 0.3 units of p60^c-src in 1.5 μl kinase dilution buffer (50 mM HEPES, 0.1 mM EDTA, 0.015% Brij 35, 0.1 mg/ml BSA, 0.2% β-mercaptoethanol, pH 7.5), and 1 μl GST-[…] (SEQ. ID. NO: 1) solution (50 mM HEPES, 0.1 mM EDTA, 0.015% Brij 35, pH 7.5 containing anywhere from 0 to 600 ng of GST-[…]) were incubated at 37° C. for times ranging from 10 minutes to 5.5 hours. After each kinase reaction the samples were mixed with 94.5 μl of TBS (10 mM Tris-HCl, 100 mM NaCl, pH 7.5) containing 1% SDS and heated to 97° C. for 5 minutes. Upon cooling, the samples were transferred to a nitrocellulose membrane using a Dot Blot apparatus (Biorad, Hercules, Calif.) following the manufacture's instructions. Prior to assembly of the Dot Blot apparatus, the membrane was wetted in TBS for 10 minutes. The apparatus was then assembled and each well was washed twice with 100 μl of TBS. 50 μl of the kinase reaction product was applied to each well. After application of the reaction mixture the wells were washed twice with 200 μl of TBS containing 0.05% Tween-20. […]

[3] = test system: Chronic Myeloid Leukemia (CML); details: cited from earlier work
v-Abl tyrosine kinase = target: T2, v-Abl tyrosine kinase (Abelson murine leukemia virus, UniProt P00521); assay: v-Abl phosphorylation of hydrogel-immobilized Abl peptide, MALDI mass spectrometry detection; assay type: biochemical; details: 3 hours, 30° C., estimated from MALDI spectrum FIG. 24B
T2 sequence (P00521 1-746): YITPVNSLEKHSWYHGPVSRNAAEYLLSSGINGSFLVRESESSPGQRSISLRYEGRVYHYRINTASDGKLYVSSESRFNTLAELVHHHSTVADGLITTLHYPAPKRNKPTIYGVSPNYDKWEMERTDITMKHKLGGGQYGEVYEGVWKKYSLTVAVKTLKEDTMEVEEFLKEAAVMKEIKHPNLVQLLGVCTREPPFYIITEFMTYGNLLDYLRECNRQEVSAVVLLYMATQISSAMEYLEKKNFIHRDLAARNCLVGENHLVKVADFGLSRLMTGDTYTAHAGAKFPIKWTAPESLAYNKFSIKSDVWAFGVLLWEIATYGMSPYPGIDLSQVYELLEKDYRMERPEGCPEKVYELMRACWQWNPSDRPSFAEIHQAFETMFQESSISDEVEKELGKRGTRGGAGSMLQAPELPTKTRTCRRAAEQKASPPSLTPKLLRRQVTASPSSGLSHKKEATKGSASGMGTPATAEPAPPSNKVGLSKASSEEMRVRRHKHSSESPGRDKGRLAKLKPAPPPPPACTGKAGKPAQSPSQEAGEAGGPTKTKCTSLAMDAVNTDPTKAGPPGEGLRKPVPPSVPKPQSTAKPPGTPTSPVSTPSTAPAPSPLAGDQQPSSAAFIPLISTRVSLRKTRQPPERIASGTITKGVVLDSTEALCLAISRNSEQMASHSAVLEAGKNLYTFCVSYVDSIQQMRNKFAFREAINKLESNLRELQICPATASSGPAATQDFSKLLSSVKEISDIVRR
Excerpt: The acrylic-labeled peptides were then incorporated into peptide-acrylamide copolymer hydrogels as described in the previous examples. Briefly recapping, individual peptide acrylamide copolymer hydrogel spots were attached to stainless steal MALDI target plates (16) (Applied Biosystems, Foster, Calif.) and acrylic-functionalized glass slides.
The peptide-acrylamide copolymer hydrogels were then subjected to enzyme-mediated phosphorylation reactions. Substrates containing peptide-acrylamide copolymer hydrogels were washed by sonication in approximately 20 ml of H2O for 10 mm and dried under compressed air. The substrates were then reconstituted in a v-Abl reaction mixture and incubated at 30° C. in a saturated environment for 3 hours. […] Following the phosphorylation reaction, the solid substrates were sonicated twice in approximately 20 ml of H2O for 10 mm and dried under compressed air.
After the phosphorylation reactions, the copolymer hydrogels were subjected to MALDI mass spectrometry analysis. Stainless steel MALDI target plates and glass slides containing peptide-acrylamide copolymer hydrogels were analyzed on an ABI Voyager 4700 MALDI-TOF/TOF mass spectrometer (Applied Biosystems). […] The samples were then analyzed in linear positive, linear negative, reflector positive, and reflector negative modes to detect the phosphorylated samples.

[4] = target: T3, Bcr-Abl (K562 cell lysate) (Homo sapiens, UniProt P00519); assay: Array-based K562 cell lysate kinase assay on GST-Crkl substrates immobilized in polyacrylamide hydrogels, ECL phosphotyrosine detection; assay type: biochemical; details: for IC50: GST-Crkl (SH3) 165 ng/mm^2, 2 h, inhibitor 100 nM to 1 mM, read-out: IC50 for inhibition of Bcr-Abl activity, inhibitor screen; for Inhibition of Bcr-Abl activity at 100 μM / Inhibition of Bcr-Abl activity at 1 mM / Inhibition of Bcr-Abl activity over the range studied: GST-Crkl (SH3), 2 h; for Inhibition of Bcr-Abl activity at 100 μM: 100 μM inhibitor; for Inhibition of Bcr-Abl activity at 1 mM: 1 mM inhibitor; for Inhibition of Bcr-Abl activity over the range studied: 100 nM to 1 mM inhibitor
T3 construct: Source of Bcr-Abl tyrosine kinase: K562 cells (American Type Culture Collection, Manassas, Va.); endogenous in cells; host or cells: K562 cells (ATCC), clarified total cell lysate; the other entry of the earlier key: BCR (P11274, Breakpoint cluster region protein)
Protocol: Preparation of K562 and HL60 Cell Lysates: K562 and HL60 cells (ATCC, Manassas, Va.) were cultured at 37° C. and 5% CO2 in RPMI-1640 media (Cambrex Bio Science, Walkersville, Md.) containing 100 units/ml penicillin, 100 μg/ml streptomycin, and 10% FBS. For lysis, cells were resuspended at 5×10^7 cells/ml in lysis buffer (42.3 mM HEPES, 126 mM NaCl, 1.27 mM MgCl2, 0.85 mM EDTA, 84.5 mM NaF, 8.45 mM sodium pyrophosphate, 0.169 mM sodium orthovanadate, 1 mM PMSF, 0.95% Triton X-100, 9.5% glycerol, 4% 25× complete protease inhibitor, pH 7.4) and incubated on ice for 20 min. The total cell lysate was then clarified by spinning at 1500 rpm for 10 min. Total protein concentration was determined via a Pierce BCA protein assay kit (Pierce, Rockford, Ill.) and cell lysates were stored at −80° C. until further use.
Fabrication of Protein Arrays: Glass slides were acrylic-functionalized and GST-Crkl fusion proteins were acrylic-labeled as described in the previous Examples. Briefly, fusion proteins were labeled on primary amines by reaction with 6-((acrylo)amino) hexanoic acid, succinimidyl ester (Molecular Probes, Eugene, Oreg.) and clean glass slides were functionalized via reaction with (3-acryloxypropyl)-trimethoxysilane (Gelest, Tullytown, Pa.).
Following functionalization of the glass slides, a thin layer of 18.8% polyacrylamide gel was attached to the glass surface. Forty μl of a mixture containing 125 μl 1.5 M Tris, pH 8.8; 285 μl 33% acrylamide mix (0.86 g N,N′-methylenebisacrylamide (Bis) and 32.14 g acrylamide in a total volume of 100 ml); 5 μl 10% ammonium persulfate (APS); 75 μl 100% glycerol; 0.5 μl N,N,N′,N′-tetramethylethylenediamine (TEMED); and 9.5 μl water was sandwiched between an acrylic-functionalized glass slide and a clean glass plate and allowed to polymerize in a N2 environment at room temperature for 30 min. The glass plate was then removed and 1 μl protein spots were polymerized on top of the 18.8% acrylamide base layer from the following mixture: 6.25 μl 1.5 M Tris, pH 8.8; 3 μl 33% acrylamide mix; 0.5 μl 10% APS; 3.75 μl 100% glycerol; 0.1 μl TEMED; 0 to 7.5 μl acrylic-labeled GST-Crkl protein solution; and water to a total volume of 25 μl. Additionally, 3 μl spacer spots of the above mixture without protein were added on the exterior corners of the protein array for the subsequent creation of a reaction chamber as described below. After attachment of the protein-acrylamide copolymer spots the slides were washed by briefly dipping into approximately 250 ml of TBST (10 mM Tris-HCl, 100 mM NaCl, 0.1% Tween-20, pH 7.5) followed by a 15 minute and two 5 minute washes with slight agitation in approximately 20 ml of TBST. Slides were then washed by briefly dipping into approximately 250 ml of water followed by two 5 minute washes with slight agitation in approximately 20 ml of water, before being stored overnight at 4° C. in Abl kinase assay buffer (50 mM Tris-HCl, 10 mM MgCl2, 100 μM EDTA, 1 mM DTT, 0.015% Brij 35, 100 μg/ml BSA, pH 7.5).
Array-Based Kinase Assays: Just prior to the kinase assay, the glass slides were removed from the Abl kinase assay buffer and dried under a stream of compressed air. Careful attention was paid to make sure that only the bare portions of the slide were dried and the polyacrylamide spots and polyacrylamide base layer remained hydrated. Using the 3 μl spacer spots, a reaction chamber was then created by suspending a clean glass slide over top of the 1 μl protein-acrylamide copolymer hydrogel spots. […] Aliquots (250 μl) of these kinase reaction mixtures were then applied to each reaction chamber and the reactions allowed to proceed for 30 min to 5 h at 30° C. in a saturated environment. After the reaction, the glass slide used to create the reaction chamber was removed and the protein array was washed by briefly dipping into approximately 250 ml TBST followed by a 15 minute and two 5 minute washes with slight agitation in approximately 20 ml of TBST.

T3 sequence (P00519 with tags, fused parts or gaps): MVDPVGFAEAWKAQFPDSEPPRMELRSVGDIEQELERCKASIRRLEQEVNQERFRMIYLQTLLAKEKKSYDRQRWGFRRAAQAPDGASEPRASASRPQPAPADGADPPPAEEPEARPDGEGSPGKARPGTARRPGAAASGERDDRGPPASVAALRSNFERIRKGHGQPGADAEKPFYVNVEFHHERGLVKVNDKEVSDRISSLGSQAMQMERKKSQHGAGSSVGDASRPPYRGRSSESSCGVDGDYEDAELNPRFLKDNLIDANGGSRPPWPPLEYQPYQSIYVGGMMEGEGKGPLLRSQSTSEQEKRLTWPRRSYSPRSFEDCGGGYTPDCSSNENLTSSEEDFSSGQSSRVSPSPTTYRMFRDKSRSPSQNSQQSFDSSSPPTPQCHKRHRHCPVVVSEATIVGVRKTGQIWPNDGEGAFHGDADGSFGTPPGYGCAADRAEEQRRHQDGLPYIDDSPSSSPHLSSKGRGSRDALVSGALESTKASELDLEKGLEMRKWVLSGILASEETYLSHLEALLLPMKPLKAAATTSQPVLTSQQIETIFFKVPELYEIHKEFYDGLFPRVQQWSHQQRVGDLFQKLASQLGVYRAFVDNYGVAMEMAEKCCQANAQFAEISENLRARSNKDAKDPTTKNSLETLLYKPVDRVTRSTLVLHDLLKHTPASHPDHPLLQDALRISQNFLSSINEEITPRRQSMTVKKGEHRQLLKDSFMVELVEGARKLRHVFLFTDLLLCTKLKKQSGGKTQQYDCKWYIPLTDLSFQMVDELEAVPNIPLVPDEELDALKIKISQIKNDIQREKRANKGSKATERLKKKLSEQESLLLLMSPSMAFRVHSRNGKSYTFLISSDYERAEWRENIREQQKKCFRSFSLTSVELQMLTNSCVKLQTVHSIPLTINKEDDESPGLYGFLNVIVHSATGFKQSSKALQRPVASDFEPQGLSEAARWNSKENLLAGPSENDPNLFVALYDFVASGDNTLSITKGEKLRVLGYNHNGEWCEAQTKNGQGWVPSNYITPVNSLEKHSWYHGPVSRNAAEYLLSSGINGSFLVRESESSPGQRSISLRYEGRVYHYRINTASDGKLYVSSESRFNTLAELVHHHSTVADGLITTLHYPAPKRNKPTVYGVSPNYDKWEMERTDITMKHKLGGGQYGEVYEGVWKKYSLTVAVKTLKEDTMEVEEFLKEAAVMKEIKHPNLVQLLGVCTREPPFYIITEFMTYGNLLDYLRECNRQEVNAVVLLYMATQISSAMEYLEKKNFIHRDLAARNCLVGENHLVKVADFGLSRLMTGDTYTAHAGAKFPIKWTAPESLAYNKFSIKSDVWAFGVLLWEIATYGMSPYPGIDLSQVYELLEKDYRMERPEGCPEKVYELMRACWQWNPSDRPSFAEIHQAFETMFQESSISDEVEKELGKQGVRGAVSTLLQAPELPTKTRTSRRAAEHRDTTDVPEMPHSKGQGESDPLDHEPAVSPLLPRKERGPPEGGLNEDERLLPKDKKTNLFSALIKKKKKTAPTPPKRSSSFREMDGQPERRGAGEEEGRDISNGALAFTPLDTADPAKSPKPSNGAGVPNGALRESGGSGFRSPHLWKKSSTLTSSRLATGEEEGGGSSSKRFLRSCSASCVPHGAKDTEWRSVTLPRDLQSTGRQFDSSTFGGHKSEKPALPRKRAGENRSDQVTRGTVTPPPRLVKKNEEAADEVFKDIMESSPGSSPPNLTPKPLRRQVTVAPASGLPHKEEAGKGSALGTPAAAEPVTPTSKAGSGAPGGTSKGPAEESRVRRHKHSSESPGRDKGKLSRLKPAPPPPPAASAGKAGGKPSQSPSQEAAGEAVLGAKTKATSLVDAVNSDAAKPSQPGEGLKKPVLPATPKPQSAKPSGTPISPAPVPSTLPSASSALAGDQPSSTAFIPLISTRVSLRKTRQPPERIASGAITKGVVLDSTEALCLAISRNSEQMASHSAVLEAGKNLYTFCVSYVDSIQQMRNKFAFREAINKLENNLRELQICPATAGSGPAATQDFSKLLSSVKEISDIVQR

Molecule: GST-EEEIYGEFE: GST-peptide fusion (SEQ. ID. NO: 1) carrying the consensus sequence for c-Src tyrosine phosphorylation ({GST}-EEEIYGEFE)
- Vmax, phosphorylation by c-Src of surface-immobilized substrate ([1]; surface reaction, polyacrylamide hydrogel spot, Lineweaver-Burk plot): 9.7±0.63 arbitrary units
- Km ([1]; surface reaction, polyacrylamide hydrogel spot, Lineweaver-Burk plot, read-out: Km, phosphorylation by c-Src of surface-immobilized substrate): 0.36 ± 0.033 µM
- Km of surface reaction lower than in solution ([1]; surface vs. solution): approximately 10 fold
- Vmax, phosphorylation by c-Src in solution [2]: 8.1±3.1 arbitrary units
- Km ([2]; read-out: Km, phosphorylation by c-Src in solution): 2.7 ± 1 µM

Molecule: α-interferon
- Survival as compared to conventional chemotherapy ([3]; CML patients): prolong survival by about a year
- Side effects ([3]; human, in vivo): significant side effects

Molecule: H-EAIYAAPFAKKK-OH [Abl peptide]
- Extent of phosphorylation (v-Abl tyrosine kinase): approximately 90%

Molecule: Cc1ccc(NC(=O)c2ccc(CN3CCN(C)CC3)cc2)cc1Nc1nccc(-c2cccnc2)n1 [Glivec]
- Complete cytogenetic remission ([3]; CML patients): 41 % of patients
- Side effects ([3]; CML patients): much milder side effects

Molecule: C[C@@H](Nc1ncnc2[nH]c(-c3ccc(O)cc3)cc12)c1ccccc1 [PKI166]
- IC50 [4]: ~100 µM
- Inhibition of Bcr-Abl activity at 100 μM [4]: Significant inhibition
- Inhibition of Bcr-Abl activity at 100 μM ([4]; listed as PKI 166): slight inhibition
- Inhibition of Bcr-Abl activity at 1 mM [4]: Significant inhibition

Molecule: COc1cc2ncnc(Nc3cccc(Cl)c3)c2cc1OC [AG1478]
- IC50 [4]: ~100 µM
- Inhibition of Bcr-Abl activity at 100 μM [4]: Significant inhibition
- Inhibition of Bcr-Abl activity at 100 μM ([4]; listed as AG 1478): slight inhibition
- Inhibition of Bcr-Abl activity at 1 mM [4]: Significant inhibition

Molecule: N#C/C(=C/c1ccc(O)c(O)c1)C(=O)NCc1ccccc1 [AG490]
- Inhibition of Bcr-Abl activity over the range studied [4]: do not inhibit

Molecule: COc1cc2ncc(-c3ccccc3)nc2cc1OC [AG1296]
- Inhibition of Bcr-Abl activity over the range studied [4]: do not inhibit
